Reference: patent US7749539B2, “Polymeric formulations for drug delivery” (Efrat Biopolymers Ltd., priority 2000, dated 2010)

How the values were obtained:
[1] = In vitro release of drug combinations from liquid poly(sebacic-ricinoleic ester anhydride); type: physicochemical; details: for release in combination compared with the drug alone: 1:1 w/w mixture of cisplatin or carboplatin with paclitaxel
Source text: The combination of two or more anticancer agents in the polymer implant was investigated. The release of a combination of drugs from liquid formulations of poly(sebacic-ricinoleic ester anhydride) was studied using a 1:1 w/w mixture of cisplatin or carboplatin with paclitaxel.

[2] = intravenous injection, cited from earlier work
[3] = Release of peptides from liquid poly(SA-RA) 30:70; type: physicochemical; details: 200 mg in 800 mg poly(SA-RA) 30:70, phosphate buffer pH7.4, 37°C
Procedure: Insulin powder (200 mg) was mixed in liquid poly(SA-RA) 30:70 (800 mg) at room temperature. The uniform formulation was added in buffer solution (100 mg in 50 ml phosphate buffer pH7.4 at 37° C.) and the release of insulin to the solution was determined by HPLC. A constant release of insulin for more than 30 days was obtained.

Question: With N.N.O=C([O-])C1(C(=O)[O-])CCC1.[Pt+2] [carboplatin] as the compound, how does the “release in combination compared with the drug alone” value [1] read?
Answer: slower

Question: Which “release in combination compared with the drug alone” value [1] does the source give for N.N.[Cl][Pt][Cl] [cisplatin] here?
Answer: slower

Question: Which results are given for CC(=O)O[C@H]1C(=O)[C@@]2(C)[C@H]([C@H](OC(=O)c3ccccc3)[C@]3(O)C[C@H](OC(=O)[C@H](O)[C@@H](NC(=O)c4ccccc4)c4ccccc4)C(C)=C1C3(C)C)[C@]1(OC(C)=O)CO[C@@H]1C[C@@H]2O [paclitaxel]?
Answer: maximum tolerated dose (MTD) ([2]; female SPF C3H/HeNcrj mice): 26 mg/kg; dose at which death due to toxicity was observed ([2]; mice): 30 mg/kg; release in combination compared with the drug alone [1]: slightly enhanced

Question: With “Insulin: Insulin powder mixed in liquid poly(SA-RA) 30:70” as the compound, how does the “duration of constant release” value [3] read?
Answer: more than 30 days

Question: Which “release of co-incorporated drug from the device” value ([1]; incorporated along with paclitaxel or other anticancer agents) does the source give for rapamycine here?
Answer: released constantly
